# From patent US11339163B2, “BRaf inhibitors and use thereof for treatment of cutaneous reactions” (Lutris Pharma Ltd., priority 2017, dated 2022)
# Tests used:
# [1] = system: BALB/c-3T3 mouse fibroblasts; assay: 3T3 neutral red uptake phototoxicity assay; format: cell-based; conditions: mouse, 24 h
# Method: Therefore, the compounds of the present disclosure were screened for phototoxicity using the 3T3 natural red uptake assay.
# In brief, BALB/c-3T3 mouse fibroblasts (originally obtained from ATCC) were seeded in 96-well plates at 12,000 cells per well, and grown for 24 hr. Test compounds and the positive control (chlorpromazine) were solubilized and serially diluted in DMSO. The negative control (histidine) was solubilized and diluted in HBSS. A dilution for all test articles was then made into HBSS at the final testing concentrations. At the start of the assay, the growth medium was removed from the plates and replaced with test agent dilution. Six replicates were used for each concentration. Cells were incubated in the dark with test article for 1 h, exposed to UVA light (2.5 J/cm2 over 18 min) and incubated 24 hrs. in the dark. A parallel non-irradiated plate was treated similarly, except it was stored in the dark, rather than illuminated.
# For Neutral Red staining, medium was removed and fresh medium containing 25 μg/mL of Neutral Red (Sigma) was added. After three hours incubation, the cells were washed with PBS, and the cellular dye was solubilized with 1% acetic acid in 50% ethanol. Cellular Neutral Red was measured by its absorbance at 540 nm.
# Data analysis: An IC50 (concentration that causes 50% reduction in viability) was calculated for each condition by linear interpolation.
# A Photo-Irritation Factor (PIF) was calculated: PIF=IC50(−Irr)/IC50(+Irr)
# PIF>5 indicates phototoxicity; 2<PIF<5 indicates probable phototoxicity; PIF<2 indicates no phototoxicity
# In addition, the Mean Photo Effect (MPE) was calculated by comparison of the complete concentration-response curves. MPE is a weighted average of the difference in response of equivalent doses normalized by the shift in IC50.
# MPE>0.15 indicates phototoxicity; 0.1<MPE<0.15 indicates probable phototoxicity; MPE<0.1 indicates no phototoxicity.
# [2] = ex vivo skin permeation and penetration, MedFlux-HT diffusion cells; format: in vitro ADME; conditions: topical composition comprising LUT014; skin sample; after 24 hours; citrate/phosphate buffer pH 4.0 with 0.01% Brij
# Method: An ex vivo permeation and penetration experiment for a topical composition comprising LUT-014 was conducted using MedFlux-HT™ continuous flow through diffusion cells. A skin sample was placed between donor and receptor compartments of the diffusion cell. The diffusion of the topical composition was measured using a citrate/phosphate buffer (pH 4.0) with 0.01% Brij as a receptor solution. LUT014 permeated into the skin sample was extracted using 90/10 acetonitrile/water as an extraction solvent.
# Salmonella typhimurium = assay: In vitro Ames test, reverse mutation assay; format: cell-based
# CDK1/cyclinB(h) = CDK1/cyclinB(h) (Homo sapiens, UniProt P06493); assay: KinaseProfiler kinase selectivity assay; format: biochemical
# Method: (§1) All compounds were prepared to 50× final assay concentration in 100% DMSO. This working stock of the compound was added to the assay well as the first component in the reaction, followed by the remaining components. In the standard KinaseProfiler™ service, there is no pre-incubation step between the compound and the kinase prior to initiation of the reaction. The positive control wells contain all components of the reaction, except the compound of interest; however, DMSO (at a final concentration of 2%) is included in these wells to control for solvent effects. The blank wells contain all components of the reaction, with a reference inhibitor replacing the compound of interest. This abolishes kinase activity and establishes the base-line (0% kinase activity remaining).
# CK1γ1(h) = CK1γ1(h) (Homo sapiens, UniProt Q9HCP0); assay: KinaseProfiler kinase selectivity assay; format: biochemical
# Method: as §1
# LOK(h) = LOK(h) (Homo sapiens, UniProt O94804); assay: KinaseProfiler kinase selectivity assay; format: biochemical
# Method: as §1
# PAK2(h) = PAK2(h) (Homo sapiens, UniProt Q13177); assay: KinaseProfiler kinase selectivity assay; format: biochemical
# Method: as §1
# [3] = target: PI3 Kinase (p110δ/p85α)(h) (Homo sapiens, UniProt O00329); assay: KinaseProfiler kinase selectivity assay; format: biochemical
# Method: as §1
# PI3 Kinase (p120γ)(h) = PI3 Kinase (p120γ)(h) (Homo sapiens, UniProt P48736); assay: KinaseProfiler kinase selectivity assay; format: biochemical
# Method: as §1
# PRAK(h) = PRAK(h) (Homo sapiens, UniProt Q8IW41); assay: KinaseProfiler kinase selectivity assay; format: biochemical
# Method: as §1
# Pim-1(h) = Pim-1(h) (Homo sapiens, UniProt P11309); assay: KinaseProfiler kinase selectivity assay; format: biochemical
# Method: as §1
# SPRK1(h) = SPRK1(h) (Homo sapiens, UniProt Q96SB4); assay: KinaseProfiler kinase selectivity assay; format: biochemical
# Method: as §1
# eEF-2K(h) = eEF-2K(h) (Homo sapiens, UniProt O00418); assay: KinaseProfiler kinase selectivity assay; format: biochemical
# Method: as §1
# GP = conditions: in vivo
# Chain of PI3 Kinase (p120γ)(h) (P48736 whole entry): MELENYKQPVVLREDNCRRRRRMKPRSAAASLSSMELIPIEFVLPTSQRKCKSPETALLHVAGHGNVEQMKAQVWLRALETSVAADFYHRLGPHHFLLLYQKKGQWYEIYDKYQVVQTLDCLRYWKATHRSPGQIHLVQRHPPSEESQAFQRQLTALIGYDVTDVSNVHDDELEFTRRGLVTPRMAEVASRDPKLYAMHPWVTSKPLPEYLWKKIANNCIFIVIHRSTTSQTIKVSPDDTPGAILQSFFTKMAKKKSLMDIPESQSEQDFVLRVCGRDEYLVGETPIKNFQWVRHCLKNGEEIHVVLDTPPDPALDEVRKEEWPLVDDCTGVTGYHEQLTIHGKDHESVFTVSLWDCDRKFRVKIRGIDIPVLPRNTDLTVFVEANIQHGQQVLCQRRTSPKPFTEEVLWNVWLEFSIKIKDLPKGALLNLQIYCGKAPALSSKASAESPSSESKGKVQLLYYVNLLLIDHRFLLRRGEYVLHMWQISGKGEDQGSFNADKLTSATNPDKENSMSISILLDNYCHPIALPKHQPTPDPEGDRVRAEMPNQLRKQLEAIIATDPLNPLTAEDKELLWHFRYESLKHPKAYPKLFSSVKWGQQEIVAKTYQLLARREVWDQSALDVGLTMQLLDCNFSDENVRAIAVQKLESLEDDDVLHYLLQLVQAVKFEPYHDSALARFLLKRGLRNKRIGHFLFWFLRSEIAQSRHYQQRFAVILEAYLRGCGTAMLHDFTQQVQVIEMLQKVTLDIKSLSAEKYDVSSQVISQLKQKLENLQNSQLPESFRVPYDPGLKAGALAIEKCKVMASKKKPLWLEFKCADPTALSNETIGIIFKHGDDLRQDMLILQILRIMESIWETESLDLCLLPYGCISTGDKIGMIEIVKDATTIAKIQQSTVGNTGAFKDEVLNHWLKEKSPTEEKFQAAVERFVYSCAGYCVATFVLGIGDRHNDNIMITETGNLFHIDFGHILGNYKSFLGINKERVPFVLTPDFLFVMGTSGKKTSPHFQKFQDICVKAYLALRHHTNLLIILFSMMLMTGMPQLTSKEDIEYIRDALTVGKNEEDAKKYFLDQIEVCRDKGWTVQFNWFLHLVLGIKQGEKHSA
# Chain of eEF-2K(h) (O00418 whole entry): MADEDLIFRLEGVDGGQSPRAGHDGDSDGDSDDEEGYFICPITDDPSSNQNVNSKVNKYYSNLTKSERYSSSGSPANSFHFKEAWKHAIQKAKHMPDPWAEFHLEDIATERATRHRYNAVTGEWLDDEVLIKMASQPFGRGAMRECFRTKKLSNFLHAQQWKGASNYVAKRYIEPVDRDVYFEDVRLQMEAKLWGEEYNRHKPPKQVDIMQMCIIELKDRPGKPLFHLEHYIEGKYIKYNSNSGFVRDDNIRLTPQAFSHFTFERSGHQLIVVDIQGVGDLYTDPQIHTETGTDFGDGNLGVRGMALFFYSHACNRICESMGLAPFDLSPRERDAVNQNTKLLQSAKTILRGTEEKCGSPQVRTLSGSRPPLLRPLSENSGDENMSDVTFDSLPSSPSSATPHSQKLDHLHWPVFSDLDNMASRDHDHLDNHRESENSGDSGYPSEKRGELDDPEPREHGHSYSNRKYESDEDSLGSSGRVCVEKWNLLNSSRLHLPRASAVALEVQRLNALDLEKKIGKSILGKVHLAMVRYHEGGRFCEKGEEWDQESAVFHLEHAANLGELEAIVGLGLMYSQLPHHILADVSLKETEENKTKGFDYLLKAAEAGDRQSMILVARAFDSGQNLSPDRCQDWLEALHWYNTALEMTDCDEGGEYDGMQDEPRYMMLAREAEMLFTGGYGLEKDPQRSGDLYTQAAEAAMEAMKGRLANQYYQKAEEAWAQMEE
# Chain of PAK2(h) (Q13177 whole entry): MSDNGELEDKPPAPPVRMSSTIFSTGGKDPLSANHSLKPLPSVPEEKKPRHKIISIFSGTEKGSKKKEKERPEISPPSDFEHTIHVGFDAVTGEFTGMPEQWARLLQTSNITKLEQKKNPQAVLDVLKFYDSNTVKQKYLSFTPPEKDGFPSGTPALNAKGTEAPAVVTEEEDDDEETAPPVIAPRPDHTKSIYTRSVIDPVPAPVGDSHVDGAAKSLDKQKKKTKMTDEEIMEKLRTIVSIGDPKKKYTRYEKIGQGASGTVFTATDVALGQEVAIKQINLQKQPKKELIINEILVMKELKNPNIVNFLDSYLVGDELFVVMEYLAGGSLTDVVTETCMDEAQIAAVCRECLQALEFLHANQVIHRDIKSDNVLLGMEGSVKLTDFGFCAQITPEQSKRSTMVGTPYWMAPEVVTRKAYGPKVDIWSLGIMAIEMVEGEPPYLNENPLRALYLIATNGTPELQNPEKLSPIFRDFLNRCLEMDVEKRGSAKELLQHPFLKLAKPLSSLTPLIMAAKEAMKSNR
# Chain of Pim-1(h) (P11309 whole entry): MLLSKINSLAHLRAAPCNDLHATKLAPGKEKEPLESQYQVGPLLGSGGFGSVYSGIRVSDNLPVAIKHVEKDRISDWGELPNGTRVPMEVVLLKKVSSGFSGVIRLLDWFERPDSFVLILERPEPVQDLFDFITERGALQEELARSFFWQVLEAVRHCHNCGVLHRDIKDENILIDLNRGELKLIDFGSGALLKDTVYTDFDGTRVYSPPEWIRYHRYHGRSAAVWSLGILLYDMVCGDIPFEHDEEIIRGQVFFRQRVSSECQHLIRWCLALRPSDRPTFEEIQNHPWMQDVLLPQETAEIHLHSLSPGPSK
# Chain of SPRK1(h) (Q96SB4 whole entry): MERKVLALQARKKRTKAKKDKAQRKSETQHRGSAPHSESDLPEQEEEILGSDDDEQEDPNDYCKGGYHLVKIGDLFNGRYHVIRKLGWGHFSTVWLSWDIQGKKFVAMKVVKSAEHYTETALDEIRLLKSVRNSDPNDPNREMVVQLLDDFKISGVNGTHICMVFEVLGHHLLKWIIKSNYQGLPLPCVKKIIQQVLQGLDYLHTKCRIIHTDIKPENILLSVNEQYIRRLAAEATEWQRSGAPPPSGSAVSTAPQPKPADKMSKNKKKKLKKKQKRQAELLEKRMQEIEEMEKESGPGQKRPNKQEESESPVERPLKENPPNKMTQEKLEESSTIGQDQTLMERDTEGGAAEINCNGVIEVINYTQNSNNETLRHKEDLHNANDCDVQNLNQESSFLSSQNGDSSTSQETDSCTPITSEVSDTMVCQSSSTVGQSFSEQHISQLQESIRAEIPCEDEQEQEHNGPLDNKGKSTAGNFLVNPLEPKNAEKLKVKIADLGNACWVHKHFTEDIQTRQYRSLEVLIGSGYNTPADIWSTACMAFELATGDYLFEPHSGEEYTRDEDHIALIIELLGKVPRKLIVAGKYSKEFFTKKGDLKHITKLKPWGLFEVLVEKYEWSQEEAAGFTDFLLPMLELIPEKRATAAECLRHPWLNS
# Chain of LOK(h) (O94804 whole entry): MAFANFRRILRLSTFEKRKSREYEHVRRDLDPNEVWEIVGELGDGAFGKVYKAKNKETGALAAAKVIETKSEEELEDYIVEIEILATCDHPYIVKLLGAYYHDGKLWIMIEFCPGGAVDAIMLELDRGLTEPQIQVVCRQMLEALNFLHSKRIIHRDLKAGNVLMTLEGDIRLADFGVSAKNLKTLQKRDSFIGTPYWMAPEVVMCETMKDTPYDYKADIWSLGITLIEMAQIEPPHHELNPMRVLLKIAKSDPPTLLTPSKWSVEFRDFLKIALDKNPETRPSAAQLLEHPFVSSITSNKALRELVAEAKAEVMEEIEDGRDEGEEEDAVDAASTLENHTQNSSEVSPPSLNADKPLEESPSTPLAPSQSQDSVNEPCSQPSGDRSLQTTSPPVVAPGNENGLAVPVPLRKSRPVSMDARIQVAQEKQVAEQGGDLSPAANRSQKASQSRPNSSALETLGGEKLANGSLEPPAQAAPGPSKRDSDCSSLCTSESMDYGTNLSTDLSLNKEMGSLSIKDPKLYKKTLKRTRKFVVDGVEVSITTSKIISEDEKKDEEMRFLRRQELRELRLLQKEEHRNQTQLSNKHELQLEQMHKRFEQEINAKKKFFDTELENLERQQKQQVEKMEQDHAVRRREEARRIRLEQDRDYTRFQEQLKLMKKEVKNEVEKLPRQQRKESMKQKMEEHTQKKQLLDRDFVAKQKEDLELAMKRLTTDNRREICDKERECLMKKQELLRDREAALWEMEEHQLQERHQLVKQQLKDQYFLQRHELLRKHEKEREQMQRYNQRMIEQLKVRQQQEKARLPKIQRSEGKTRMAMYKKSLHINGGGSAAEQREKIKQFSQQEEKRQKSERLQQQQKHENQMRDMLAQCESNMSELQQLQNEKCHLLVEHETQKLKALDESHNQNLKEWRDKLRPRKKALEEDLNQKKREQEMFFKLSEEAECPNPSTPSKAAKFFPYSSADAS
# Chain of CK1γ1(h) (Q9HCP0 whole entry): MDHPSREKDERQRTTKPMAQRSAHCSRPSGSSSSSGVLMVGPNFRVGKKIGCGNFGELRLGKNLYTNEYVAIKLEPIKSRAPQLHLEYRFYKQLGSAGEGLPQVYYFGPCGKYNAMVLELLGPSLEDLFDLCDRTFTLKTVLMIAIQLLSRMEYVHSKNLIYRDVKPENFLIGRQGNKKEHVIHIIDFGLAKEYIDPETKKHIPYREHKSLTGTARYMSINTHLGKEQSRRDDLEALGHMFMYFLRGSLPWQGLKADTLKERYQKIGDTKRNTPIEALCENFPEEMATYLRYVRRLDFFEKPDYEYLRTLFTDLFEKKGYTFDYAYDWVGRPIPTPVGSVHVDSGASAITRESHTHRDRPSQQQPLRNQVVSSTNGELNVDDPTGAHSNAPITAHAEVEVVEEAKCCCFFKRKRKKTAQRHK
smiles,measurement,setting,value
Cc1ccc2c(Nc3cccc(OC(F)(F)F)c3)nccc2c1Nc1ncccc1-c1ncnc2[nH]cnc12 [LUT014],"phototoxicity (3T3 NRU), stated in words",[1],Lut014 is classified as non-phototoxic
same,maximum accumulated level of LUT014 in the receptor solution,[2],less than 2 ng/mL
same,"mutagenicity, Salmonella typhimurium reverse mutation assay",Salmonella typhimurium,not mutagenic
same,remaining activity at 0.01 µM,CDK1/cyclinB(h); Lut014 @ 0.01 μM,113%
same,remaining activity at 1 µM,CDK1/cyclinB(h); Lut014 @ 1 μM,102%
same,remaining activity at 0.01 µM,CK1γ1(h); Lut014 @ 0.01 μM,94%
same,remaining activity at 1 µM,CK1γ1(h); Lut014 @ 1 μM,101%
same,remaining activity at 0.01 µM,LOK(h); Lut014 @ 0.01 μM,98%
same,remaining activity at 1 µM,LOK(h); Lut014 @ 1 μM,83%
same,remaining activity at 0.01 µM,PAK2(h); Lut014 @ 0.01 μM,95%
same,remaining activity at 1 µM,PAK2(h); Lut014 @ 1 μM,111%
same,remaining activity at 0.01 µM,[3]; Lut014 @ 0.01 μM,96%
same,remaining activity at 1 µM,[3]; Lut014 @ 1 μM,94%
same,remaining activity at 0.01 µM,PI3 Kinase (p120γ)(h); Lut014 @ 0.01 μM,96%
same,remaining activity at 1 µM,PI3 Kinase (p120γ)(h); Lut014 @ 1 μM,83%
same,remaining activity at 0.01 µM,PRAK(h); Lut014 @ 0.01 μM,101%
same,remaining activity at 1 µM,PRAK(h); Lut014 @ 1 μM,103%
same,remaining activity at 0.01 µM,Pim-1(h); Lut014 @ 0.01 μM,96%
same,remaining activity at 1 µM,Pim-1(h); Lut014 @ 1 μM,89%
same,remaining activity at 0.01 µM,SPRK1(h); Lut014 @ 0.01 μM,105%
same,remaining activity at 1 µM,SPRK1(h); Lut014 @ 1 μM,100%
same,remaining activity at 0.01 µM,eEF-2K(h); Lut014 @ 0.01 μM,95%
same,remaining activity at 1 µM,eEF-2K(h); Lut014 @ 1 μM,106%
same,dermal sensitization,GP,The test article is not
